Measurements as given in patent publication US10675266B2, “Compounds and methods for treating autism spectrum disorders” (BIOCODEX, priority 2008, dated 2020).

Tests used:
BALB/c mice = test: Social investigatory behaviour of BALB/c test mice towards a juvenile DBA/2J stimulus mouse; type: in vivo; details: for duration of social contacts: 100, 200 and 300 mg/kg i.p. once daily for 5 days
Method: (§1) The purpose of this study was to examine the effects of stiripentol on the social behavioural in BALB/c mice compared to C57BL/6J (C57) inbred mice. The social investigatory behaviour of mice was measured by the amount of time that the “test” mouse (BALB/c and C57 mice) engaged in social contact with the “stimulus” mouse (juvenile DBA/2J mice strain).
(§2) All male mice (BALB/c, C57 and DBA/2J) were purchased from the Charles River breeding (Les Oncins-France). BALB/c and C57 mice were 8 weeks of age upon arrival at the laboratory. They were housed in temperature-controlled rooms (22±2° C.), separately by strain, with 5 mice per polycarbonate cage (type “S” cage: 265 mm L×160 mm W×140 mm H) and provided with food (A04-SAFE, France) and tap water ad libitum. Behavioral testing was conducted during the light period of a 12-h light:12-h dark cycle (lights on at 7 a.m.). The mice were used for behavioural testing starting 5-7 days after arrival at the laboratory whereas juvenile DBA/2J mice were used at 3-weeks of age and arrived at the laboratory 5 days prior testing. The experiments were conducted in accordance with the European Recommendations (directive 86/609/ECC) for the care and use of laboratory animals.
(§3) The general procedure was conducted according to the protocol described by Fishkin and Winslow (1997) Psychopharmacology (Berl) 132:335-341 with slight modifications.
Twenty-four hours prior to testing, BALB/c and C57 mice were individually housed in clear cage (type “S” cage). Food and water remained freely available. Individual housing was provided firstly to permit resident male mice an opportunity to scent mark and habituate to their home cage and, secondly to heighten the motivation of “test” mice for social interaction. All the animals were allowed to acclimate to the test room (natural lighting) for at least 1 h prior to testing which was conducted between 9 a.m. and 3 p.m.
The juvenile DBA/2J mouse was placed into BALB/c or C57 mouse cage for a 10-min observation period. The DBA/2J mouse served as “stimulus” mouse for one BALB/c mouse and one C57BL mouse. For each contact, an observer, sitting about 1 m from the cage; recorded the latency to the first contact (or approach) (in sec) towards the “stimulus” mouse and the time (in sec) that the “test” mouse spent in social investigatory behaviour. Nosing, sniffing, pawing, grooming and close following of the “stimulus” mouse by the young adult mouse were considered to be signs of social investigation. […]
(§4) All data represent the mean±standard error of mean (S.E.M.). Treatment effects on mean latency to the first contact and on mean duration of social investigation were analyzed with two-way analysis of variance (ANOVA) with the strain and the treatment as factors. […]

C57 mice = test: Social investigatory behaviour of C57 test mice towards a juvenile DBA/2J stimulus mouse; type: in vivo
Method: as §1, §2, §3
Twenty-four hours prior to testing, BALB/c and C57 mice were individually housed in clear cage (type “S” cage). […]
The juvenile DBA/2J mouse was placed into BALB/c or C57 mouse cage for a 10-min observation period. […] For each contact, an observer, sitting about 1 m from the cage; recorded the latency to the first contact (or approach) (in sec) towards the “stimulus” mouse and the time (in sec) that the “test” mouse spent in social investigatory behaviour. […]
as §4

patients = test: Observation of autism symptoms in patients after initiation of treatment; type: in vivo, human
From the text: This observation can be confirmed by studies in animal models that mimic characteristic features of autism such as the models described by Moy S S et al, Behav. Brain Res. 176:4, 2007 and McFarlane H G et al, Genes, Brain and Behavior, 1601:1, 2007.

[1] = tested on: recombinant GABA-A receptors; details: cited from earlier work
SMEI patients = details: cited from earlier work
animal models = details: several animal models; cited from earlier work
[2] = doses 100, 200 and 300 mg/kg i.p.; from literature (Gasior 1999; Vincent 1991); cited from earlier work

SMILES: CC(C)(C)C(O)/C=C/c1ccc2c(c1)OCO2 (racemic) [Stiripentol, 1-penten-3-ol, 1-(1,3-benzodioxol)-4,4-dimethyl]
- latency to the first contact (BALB/c mice; 100, 200, 300 mg/kg i.p. once daily for 5 days, last dose 60 min before testing, FIG. 1): trend for decrease
- duration of social contacts (BALB/c mice; FIG. 2): increased duration of social contacts
- duration of social contacts (BALB/c mice; FIG. 2, listed as stiripentol): significantly increased
- sociability (BALB/c mice; sub-chronic treatment 100, 200 or 300 mg/kg i.p. x 5 days): enhanced the sociability
- sedative effects (C57 mice; 300 mg/kg i.p. once daily for 5 days): sedative effects in C57 mice began to appear
- duration of social contacts (C57 mice; 300 mg/kg i.p. once daily for 5 days, FIG. 2): significantly lowered
- latency to the first contact (C57 mice; up to 300 mg/kg i.p. once daily for 5 days, FIG. 1): without effects
- autism symptoms (patients): resolution of autism symptoms
- modulation of the GABA receptor ([1]; Fisher, Neuropharmacology 2009): positive allosteric modulator
- potentiation by subunit subtype ([1]; alpha subunit subtypes compared): alpha 3 subtype showed the greatest potentiation
- response rate (SMEI patients; SMEI patients, 50 mg/kg/day): high response rate
- efficacy in double blind controlled clinical trials (SMEI patients; two double blind controlled clinical trials (Chiron, Lancet 2000)): high efficacy
- anticonvulsant activity (animal models): has shown anticonvulsant activity
- adverse motor effects [2]: devoid of any adverse motor effects
